Source: ChEMBL document CHEMBL5537113, “Discovery of 1,2-diaryl-3-oxopyrazolidin-4-carboxamides as a new class of MurA enzyme inhibitors and characterization of their antibacterial activity” (Eur J Med Chem, 2023)
Calls of active or inactive are those of the source. The calls are words filed in the database; no cut-off is given here.

Assays:
[1] = target: UDP-N-acetylglucosamine 1-carboxyvinyltransferase (Escherichia coli K-12) (UniProt P0A749); test: Inhibition of Escherichia coli K12 His-tagged MurA expressed in Escherichia coli BL21 cells at 50 uM using UNAG as substrate pre incubated for 15 mins followed by substrate addition and measured after 15 mins by microplate reader analysis relative to control; settings: time 30.0 min
UDP-N-acetylglucosamine 1-carboxyvinyltransferase (Escherichia coli K-12), sequence (P0A749 whole entry): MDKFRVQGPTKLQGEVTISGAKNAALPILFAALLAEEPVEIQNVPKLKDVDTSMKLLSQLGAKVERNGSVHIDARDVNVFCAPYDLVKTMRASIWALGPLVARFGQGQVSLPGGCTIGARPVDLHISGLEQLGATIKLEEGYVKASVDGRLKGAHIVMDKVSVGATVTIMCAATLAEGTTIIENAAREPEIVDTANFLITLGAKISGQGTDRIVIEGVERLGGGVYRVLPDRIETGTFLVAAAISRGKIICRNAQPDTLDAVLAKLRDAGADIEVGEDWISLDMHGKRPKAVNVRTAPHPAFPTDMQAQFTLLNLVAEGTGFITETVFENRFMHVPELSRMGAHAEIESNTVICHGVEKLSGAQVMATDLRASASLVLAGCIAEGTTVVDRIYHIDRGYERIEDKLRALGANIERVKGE

[2] = system: Escherichia coli; test: Antibacterial activity against Escherichia coli harboring tolC deletion mutant assessed as reduction in microbial growth incubated for 16 hrs by serial dilution method; type: functional
[3] = system: Staphylococcus aureus; test: Antibacterial activity against Staphylococcus aureus Newman D2C NCTC 10833 assessed as reduction in microbial growth incubated for 16 hrs by serial dilution method; type: functional
[4] = target: UDP-N-acetylglucosamine 1-carboxyvinyltransferase (Escherichia coli K-12, UniProt P0A749); test: Inhibition of Escherichia coli K12 His-tagged MurA expressed in Escherichia coli BL21 cells using UNAG as substrate pre incubated for 15 mins followed by substrate addition and measured after 15 mins by microplate reader analysis
UDP-N-acetylglucosamine 1-carboxyvinyltransferase, sequence (P0A749 whole entry): as above

[5] = system: Lactobacillus crispatus; test: Antibacterial activity against Lactobacillus crispatus HM 103 assessed as reduction in microbial growth incubated for 48 hrs by broth microdilution method; type: functional
[6] = system: Clostridioides difficile; test: Antibacterial activity against Clostridioides difficile ATCC 43255 assessed as reduction in microbial growth incubated for 48 hrs by broth microdilution method; type: functional
[7] = system: Clostridioides difficile; test: Antibacterial activity against Clostridioides difficile NR-49291 assessed as reduction in microbial growth incubated for 48 hrs by broth microdilution method; type: functional
[8] = system: Clostridioides difficile; test: Bactericidal activity against Clostridioides difficile NR-32904 assessed as reduction in microbial growth by broth microdilution method; type: functional
[9] = system: Clostridioides difficile; test: Antibacterial activity against Clostridioides difficile NR-49278 assessed as reduction in microbial growth incubated for 48 hrs by broth microdilution method; type: functional
[10] = system: Bifidobacterium breve; test: Antibacterial activity against Bifidobacterium breve HM1120 assessed as reduction in microbial growth incubated for 48 hrs by broth microdilution method; type: functional
[11] = system: Clostridioides difficile; test: Antibacterial activity against Clostridioides difficile NR-32889 assessed as reduction in microbial growth incubated for 48 hrs by broth microdilution method; type: functional
[12] = system: Lactobacillus gasseri; test: Antibacterial activity against Lactobacillus gasseri HM 403 assessed as reduction in microbial growth incubated for 48 hrs by broth microdilution method; type: functional
[13] = system: Clostridioides difficile; test: Bactericidal activity against Clostridioides difficile ATCC BAA1870 assessed as reduction in microbial growth by broth microdilution method; type: functional
[14] = system: Clostridioides difficile; test: Antibacterial activity against Clostridioides difficile NR-49279 assessed as reduction in microbial growth incubated for 48 hrs by broth microdilution method; type: functional
[15] = system: Clostridioides difficile; test: Antibacterial activity against Clostridioides difficile NR-32904 assessed as reduction in microbial growth incubated for 48 hrs by broth microdilution method; type: functional
[16] = system: Bifidobacterium longum; test: Antibacterial activity against Bifidobacterium longum HM 846 assessed as reduction in microbial growth incubated for 48 hrs by broth microdilution method; type: functional
[17] = system: Clostridioides difficile; test: Antibacterial activity against Clostridioides difficile NR-49288 assessed as reduction in microbial growth incubated for 48 hrs by broth microdilution method; type: functional
[18] = system: Clostridioides difficile; test: Bactericidal activity against Clostridioides difficile NR-49284 assessed as reduction in microbial growth by broth microdilution method; type: functional
[19] = system: Clostridioides difficile; test: Antibacterial activity against Clostridioides difficile NR-49277 assessed as reduction in microbial growth incubated for 48 hrs by broth microdilution method; type: functional
[20] = system: Clostridioides difficile; test: Bactericidal activity against Clostridioides difficile NR-32895 assessed as reduction in microbial growth by broth microdilution method; type: functional
[21] = system: Clostridioides difficile; test: Antibacterial activity against Clostridioides difficile NR-13436 assessed as reduction in microbial growth incubated for 48 hrs by broth microdilution method; type: functional
[22] = system: Bifidobacterium angulatum; test: Antibacterial activity against Bifidobacterium angulatum HM 1189 assessed as reduction in microbial growth incubated for 48 hrs by broth microdilution method; type: functional
[23] = system: Clostridioides difficile; test: Bactericidal activity against Clostridioides difficile NR-49278 assessed as reduction in microbial growth by broth microdilution method; type: functional
[24] = system: Clostridioides difficile; test: Antibacterial activity against Clostridioides difficile NR-49286 assessed as reduction in microbial growth incubated for 48 hrs by broth microdilution method; type: functional
[25] = system: Clostridioides difficile; test: Antibacterial activity against Clostridioides difficile NR-49282 assessed as reduction in microbial growth incubated for 48 hrs by broth microdilution method; type: functional
[26] = system: Clostridioides difficile; test: Bactericidal activity against Clostridioides difficile ATCC 43255 assessed as reduction in microbial growth by broth microdilution method; type: functional
[27] = system: Clostridioides difficile; test: Antibacterial activity against Clostridioides difficile NR-49287 assessed as reduction in microbial growth incubated for 48 hrs by broth microdilution method; type: functional
[28] = system: Lactobacillus crispatus; test: Antibacterial activity against Lactobacillus crispatus HM 420 assessed as reduction in microbial growth incubated for 48 hrs by broth microdilution method; type: functional
[29] = system: Bifidobacterium breve; test: Antibacterial activity against Bifidobacterium breve HM 412 assessed as reduction in microbial growth incubated for 48 hrs by broth microdilution method; type: functional
[30] = system: Bacteroides fragilis; test: Antibacterial activity against Bacteroides fragilis HM 718 assessed as reduction in microbial growth incubated for 48 hrs by broth microdilution method; type: functional
[31] = system: Lactobacillus gasseri; test: Antibacterial activity against Lactobacillus gasseri HM 407 assessed as reduction in microbial growth incubated for 48 hrs by broth microdilution method; type: functional
[32] = system: Bacteroides fragilis; test: Antibacterial activity against Bacteroides fragilis HM 709 assessed as reduction in microbial growth incubated for 48 hrs by broth microdilution method; type: functional
[33] = system: Clostridioides difficile; test: Antibacterial activity against Clostridioides difficile HM-88 assessed as reduction in microbial growth incubated for 48 hrs by broth microdilution method; type: functional
[34] = system: Clostridioides difficile; test: Antibacterial activity against Clostridioides difficile NR-49285 assessed as reduction in microbial growth incubated for 48 hrs by broth microdilution method; type: functional
[35] = system: Clostridioides difficile; test: Antibacterial activity against Clostridioides difficile NR-32895 assessed as reduction in microbial growth incubated for 48 hrs by broth microdilution method; type: functional
[36] = system: Clostridioides difficile; test: Antibacterial activity against Clostridioides difficile NR-32903 assessed as reduction in microbial growth incubated for 48 hrs by broth microdilution method; type: functional
[37] = system: Clostridioides difficile; test: Antibacterial activity against Clostridioides difficile NR-49283 assessed as reduction in microbial growth incubated for 48 hrs by broth microdilution method; type: functional
[38] = system: Bacteroides fragilis; test: Antibacterial activity against Bacteroides fragilis HM 20 assessed as reduction in microbial growth incubated for 48 hrs by broth microdilution method; type: functional
[39] = system: Bacteroides fragilis; test: Antibacterial activity against Bacteroides fragilis HM 719 assessed as reduction in microbial growth incubated for 48 hrs by broth microdilution method; type: functional
[40] = system: Clostridioides difficile; test: Antibacterial activity against Clostridioides difficile NR-49284 assessed as reduction in microbial growth incubated for 48 hrs by broth microdilution method; type: functional
[41] = system: Clostridioides difficile; test: Antibacterial activity against Clostridioides difficile NR-49294 assessed as reduction in microbial growth incubated for 48 hrs by broth microdilution method; type: functional
[42] = system: Clostridioides difficile; test: Antibacterial activity against Clostridioides difficile NR-13427 assessed as reduction in microbial growth incubated for 48 hrs by broth microdilution method; type: functional
[43] = system: Staphylococcus aureus; test: Antibacterial activity against methicillin resistant Staphylococcus aureus NRS119 assessed as reduction in microbial growth by CLSI based broth microdilution method; type: functional
[44] = system: Staphylococcus aureus; test: Antibacterial activity against methicillin sensitive Staphylococcus aureus NRS107 assessed as reduction in microbial growth by CLSI based broth microdilution method; type: functional
[45] = system: Staphylococcus aureus; test: Antibacterial activity against vancomycin resistant Staphylococcus aureus 10 assessed as reduction in microbial growth by CLSI based broth microdilution method; type: functional
[46] = system: Clostridioides difficile; test: Antibacterial activity against Clostridioides difficile ATCC BAA1870 assessed as reduction in microbial growth incubated for 48 hrs by broth microdilution method; type: functional
[47] = system: Staphylococcus aureus; test: Antibacterial activity against methicillin resistant Staphylococcus aureus USA300 assessed as reduction in microbial growth by CLSI based broth microdilution method; type: functional

With N#Cc1cnc(NC(=O)C2CN(c3ccccc3)N(c3ccccc3)C2=O)s1 (centres undefined) the inhibition [1] was “inactive”, the MIC [2] was over 40 µM and the MIC [3] was over 40 µM.

In the case of Cc1cnc(NC(=O)C2CN(c3cccc(Cl)c3)N(c3cccc(Cl)c3)C2=O)s1 (centres undefined), the inhibition [1] is reported as 59.6%, the MIC [2] is reported as 40 µM and the MIC [3] is reported as over 40 µM. The IC50 [4] was 22 µM.

Cc1csc(NC(=O)C2CN(c3cccc(Cl)c3)N(c3cccc(Cl)c3)C2=O)n1 (centres undefined) showed an inhibition [1] of 60.2%, an MIC [2] of 40 µM and an MIC [3] of over 40 µM. The IC50 [4] was 39.3 µM.

With O=C(Nc1ccc2cn[nH]c2c1)C1CN(c2cccc(Cl)c2)N(c2cccc(Cl)c2)C1=O (centres undefined) the inhibition [1] was 65.2%, the MIC [2] was 20 µM and the MIC [3] was over 40 µM. For the same molecule, the IC50 [4] was 35.4 µM.

O=C(Nc1cccnc1)C1CN(c2cccc(Cl)c2)N(c2cccc(Cl)c2)C1=O (centres undefined) was tested, and the inhibition [1] was 8.7%, the MIC [2] was 38 µM and the MIC [3] was over 40 µM.

Work on O=C(NCc1ccco1)C1CN(c2cccc(Cl)c2)N(c2cccc(Cl)c2)C1=O (centres undefined) yielded an inhibition [1] of 34%, an MIC [2] of over 40 µM and an MIC [3] of over 40 µM.

In the case of O=C(Nc1ccc2ncsc2c1)C1CN(c2cccc(Cl)c2)N(c2cccc(Cl)c2)C1=O (centres undefined), the inhibition [1] is reported as 44.7%, the MIC [2] is reported as over 40 µM and the MIC [3] is reported as over 40 µM.

For CN1C(=O)C(C(=O)NC2CCSC2=O)CN1c1cccc(Cl)c1 (centres undefined), the inhibition [1] was “inactive”, the MIC [2] was over 40 µM and the MIC [3] was over 40 µM.

In the case of O=C1SCCC1NC(=O)C1CN(c2ccccc2)N(c2ccccc2)C1=O (centres undefined), the inhibition [1] is reported as “inactive”, the MIC [2] is reported as over 40 µM and the MIC [3] is reported as over 40 µM.

In the case of CSc1nnc(NC(=O)C2CN(c3cccc(Cl)c3)N(c3cccc(Cl)c3)C2=O)s1 (centres undefined), the inhibition [1] is reported as 63.4%, the MIC [2] is reported as 38 µM and the MIC [3] is reported as over 40 µM. For the same molecule, the IC50 [4] was 26.9 µM.

For CN1C(=O)C(C(=O)Nc2ncc(C#N)s2)CN1c1cccc(Cl)c1 (centres undefined), the inhibition [1] was “inactive”, the MIC [2] was over 40 µM and the MIC [3] was over 40 µM.

With CCc1c(Cl)c(O)c(Cl)c(O)c1C(=O)O[C@H]1[C@H](O)[C@H](OC)[C@H](OC/C2=C\C=C\C[C@H](O)/C(C)=C/[C@H](CC)[C@@H](O[C@@H]3OC(C)(C)[C@@H](OC(=O)C(C)C)[C@H](O)[C@@H]3O)/C(C)=C/C(C)=C/C[C@@H]([C@@H](C)O)OC2=O)O[C@@H]1C [FIDAXOMICIN] the MIC [5] was 0.5 µg/mL, the MIC [6] was 0.03 µg/mL and the MIC [7] was 0.125 µg/mL. It also gave an MBC [8] of 0.06 µg/mL, an MIC [9] of 0.06 µg/mL and an MIC [10] of at most 0.06 µg/mL. It also gave an MIC [11] of 0.03 µg/mL, an MIC [12] of 1 µg/mL and an MBC [13] of 0.25 µg/mL. The MIC [14] was 0.125 µg/mL, the MIC [15] was 0.06 µg/mL and the MIC [16] was at most 0.06 µg/mL. The MIC [17] was 0.03 µg/mL, the MBC [18] was 0.06 µg/mL and the MIC [19] was 0.06 µg/mL. For the same molecule, the MBC [20] was 0.06 µg/mL, the MIC [21] was 0.06 µg/mL and the MIC [22] was at most 0.06 µg/mL. The MBC [23] was 0.125 µg/mL, the MIC [24] was 0.125 µg/mL and the MIC [25] was 0.06 µg/mL. For the same molecule, the MBC [26] was 0.06 µg/mL, the MIC [27] was 0.125 µg/mL and the MIC [28] was 2 µg/mL. For the same molecule, the MIC [29] was at most 0.06 µg/mL, the MIC [30] was over 64 µg/mL and the MIC [31] was 1 µg/mL. It also gave an MIC [32] of over 64 µg/mL, an MIC [33] of 0.015 µg/mL and an MIC [34] of 0.06 µg/mL. For the same molecule, the MIC [35] was 0.03 µg/mL, the MIC [36] was 0.06 µg/mL and the MIC [37] was 0.06 µg/mL. The MIC [38] was over 64 µg/mL, the MIC [39] was over 64 µg/mL and the MIC [40] was 0.06 µg/mL. For the same molecule, the MIC [41] was 0.06 µg/mL and the MIC [42] was 0.06 µg/mL.

For CC(=O)NC[C@H]1CN(c2ccc(N3CCOCC3)c(F)c2)C(=O)O1 [LINEZOLID], the MIC [43] was 32 µg/mL, the MIC [44] was 0.5 µg/mL and the MIC [45] was 0.5 µg/mL. It also gave an MIC [46] of 1 µg/mL and an MIC [47] of 1 µg/mL.

Work on O=C(Nc1ccc2[nH]ncc2c1)C1CN(c2cccc(Cl)c2)N(c2cccc(Cl)c2)C1=O (centres undefined) yielded an inhibition [1] of 59.5%, an MIC [2] of 23 µM and an MIC [3] of over 40 µM. It also gave an IC50 [4] of 44.1 µM.
